Where “and” joins values, the source holds several entries; their conditions need not be identical. Equal values may be shown once. Toxic doses and inconclusive results are not listed. Starred links: 1 amine or outer side, 2 acyl side, 3 side chain; linkers in the order of their positions; H or OH if unused. Positions of bridges follow the written chain, without caps; N, C: chain ends. Non-standard residues stand in square brackets, D forms with d. Residues, ends and D or L forms follow the SMILES beside them. Chains are numbered I, II in the order given. Actinocin(9to1) = Cc1c2oc3c(C)ccc(C(=O)[*:1])c3nc-2c(C(=O)[*:2])c(N)c1=O; aThr = C[C@H](O)[C@H](N)C(=O)O; NMeV = CN[C@H](C(=O)O)C(C)C; Sar = CNCC(=O)O
System: BDF1 mice, P388 leukemia ip, median survival T/C
Assay: NCI In Vivo Anticancer Drug Screen. Data for tumor model P388 Leukemia (intraperitoneal) in B6D2F1 (BDF1) mice
Settings: endpoint: median survival time, higher = longer survival
Method in brief: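 T/C = treated-group survival ÷ vehicle-control survival; tumour transplanted into mice before dosing.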

For Cc1c2oc3c(C)ccc(C(=O)N[C@@H]4C(=O)N[C@H](C(C)C)C(=O)N5CCC[C@H]5C(=O)N(C)CC(=O)N(C)[C@@H](C(C)C)C(=O)O[C@H]4C)c3nc-2c(C(=O)N[C@@H]2C(=O)N[C@H](C(C)C)C(=O)N3CCC[C@H]3C(=O)N(C)CC(=O)N(C)[C@@H](C(C)C)C(=O)O[C@H]2C)c(N)c1=O (I: [aThr][dV]P[Sar][NMeV] / II: [aThr][dV]P[Sar][NMeV]; ester I:1-I:C, II:1-II:C; linker I:N-II:N via Actinocin(9to1)), the T/C (dose: 0.03 mg/kg/injection, schedule: Q01DX009 (ip), vehicle: saline) was 233 % of control, the T/C (dose: 0.03 mg/kg/injection, schedule: Q04DX003 (ip), vehicle: saline + alcohol) was 161 % of control and the T/C (dose: 0.06 mg/kg/injection, schedule: Q04DX003 (ip), vehicle: saline + alcohol) was 157 % of control. The T/C (dose: 0.07 mg/kg/injection, schedule: Q01DX009 (ip), vehicle: saline) was 250 % of control, the T/C (dose: 0.1 mg/kg/injection, schedule: Q01DX001 (ip), vehicle: saline) was 194 % of control and the T/C (dose: 0.13 mg/kg/injection, schedule: Q01DX009 (ip), vehicle: saline) was 100 % of control. The T/C (dose: 0.13 mg/kg/injection, schedule: Q04DX003 (ip), vehicle: saline + alcohol) was 184 % of control, the T/C (dose: 0.2 mg/kg/injection, schedule: Q01DX001 (ip), vehicle: saline) was 225 % of control and the T/C (dose: 0.25 mg/kg/injection, schedule: Q01DX001 (ip), vehicle: saline) was 178 % of control. The T/C (dose: 0.26 mg/kg/injection, schedule: Q01DX001 (ip), vehicle: saline) was 167 % of control, the T/C (dose: 0.3 mg/kg/injection, schedule: Q04DX003 (ip), vehicle: saline) was 100 % of control and the T/C (dose: 0.35 mg/kg/injection, schedule: Q01DX001 (ip), vehicle: other) was 166 % of control. For the same compound, the T/C (dose: 0.35 mg/kg/injection, schedule: Q01DX001 (ip), vehicle: saline) was 176 % of control and 185 % of control, the T/C (dose: 0.35 mg/kg/injection, schedule: Q04DX003 (ip), vehicle: saline) was 95 % of control and the T/C (dose: 0.4 mg/kg/injection, schedule: Q01DX001 (ip), vehicle: water) was 183 % of control. For the same compound, the T/C (dose: 0.4 mg/kg/injection, schedule: Q04DX003 (ip), vehicle: saline) was 90 % of control, the T/C (dose: 0.5 mg/kg/injection, schedule: Q01DX001 (ip), vehicle: other) was 192 % of control and the T/C (dose: 0.5 mg/kg/injection, schedule: Q04DX003 (ip), vehicle: saline + alcohol) was 79 % of control. For the same compound, the T/C (dose: 0.54 mg/kg/injection, schedule: Q01DX001 (ip), vehicle: saline) was 195 % of control, the T/C (dose: 0.6 mg/kg/injection, schedule: Q01DX001 (ip), vehicle: saline) was 223 % of control and the T/C (dose: 0.8 mg/kg/injection, schedule: Q01DX001 (ip), vehicle: other) was 236 % of control. The T/C (dose: 0.9 mg/kg/injection, schedule: Q01DX001 (ip), vehicle: saline) was 230 % of control, the T/C (dose: 1.2 mg/kg/injection, schedule: Q01DX001 (ip), vehicle: saline) was 225 % of control and the T/C (dose: 3.1 micrograms/kg/injection, schedule: Q01DX001 (ip), vehicle: saline) was 118 % of control. The T/C (dose: 3.1 micrograms/kg/injection, schedule: Q01DX010 (ip), vehicle: saline) was 170 % of control, the T/C (dose: 3.1 micrograms/kg/injection, schedule: Q04DX003 (ip), vehicle: saline) was 113 % of control and the T/C (dose: 6.3 micrograms/kg/injection, schedule: Q01DX001 (ip), vehicle: saline) was 122 % of control. For the same compound, the T/C (dose: 12.5 micrograms/kg/injection, schedule: Q01DX009 (ip), vehicle: saline) was 177 % of control, the T/C (dose: 12.5 micrograms/kg/injection, schedule: Q01DX009 (ip), vehicle: water) was 153 % of control and the T/C (dose: 12.5 micrograms/kg/injection, schedule: Q01DX010 (ip), vehicle: saline) was 225 % of control. The T/C (dose: 12.5 micrograms/kg/injection, schedule: Q04DX003 (ip), vehicle: saline) was 154 % of control, the T/C (dose: 21.6 micrograms/kg/injection, schedule: Q01DX009 (ip), vehicle: saline + alcohol) was 238 % of control and the T/C (dose: 25.0 micrograms/kg/injection, schedule: Q01DX009 (ip), vehicle: saline + alcohol) was 294 % of control and 162 % of control. For the same compound, the T/C (dose: 25.0 micrograms/kg/injection, schedule: Q01DX009 (ip), vehicle: saline) was 250 % of control and 274 % of control and 200 % of control, the T/C (dose: 25.0 micrograms/kg/injection, schedule: Q01DX009 (ip), vehicle: water) was 155 % of control and the T/C (dose: 25.0 micrograms/kg/injection, schedule: Q01DX010 (ip), vehicle: saline) was 245 % of control.

Source: PubChem BioAssay AID328 (DTP/NCI, 2004)
